Reference: patent US20160046618A1, “Cyclopropyl Fused Thiazin-2-Amine Compounds as Beta-Secretase Inhibitors and Methods of Use” (AMGEN INC., priority 2014, published 2016)

How the values were obtained:
Recombinant Cat D = Recombinant Cat D (Homo sapiens (Human), UniProt P07339); assay: In vitro enzymatic Cathepsin D (Cat D) FRET assay; assay type: biochemical; conditions: read-out: IC50 IP (μM) CatD
Outline: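 Human Cat D expressed in CHO cells was incubated for one hour in 0.05 M citrate pH 3.5, 5 mM CHAPS, 10% DMSO final, with 20 nM quenched FRET peptide substrate. Reactions were stopped with Tris buffer raising pH to neutrality. Cleavage was read as fluorescence at excitation 500 nm, emission 580 nm.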

human recombinant BACE2 = human recombinant BACE2 (Homo sapiens (Human), UniProt Q9Y5Z0); assay: In vitro enzymatic BACE2 FRET assay; assay type: biochemical; conditions: read-out: IC50 IP (μM) BACE2 enzyme
Sequence of human recombinant BACE2 (Q9Y5Z0 63-518): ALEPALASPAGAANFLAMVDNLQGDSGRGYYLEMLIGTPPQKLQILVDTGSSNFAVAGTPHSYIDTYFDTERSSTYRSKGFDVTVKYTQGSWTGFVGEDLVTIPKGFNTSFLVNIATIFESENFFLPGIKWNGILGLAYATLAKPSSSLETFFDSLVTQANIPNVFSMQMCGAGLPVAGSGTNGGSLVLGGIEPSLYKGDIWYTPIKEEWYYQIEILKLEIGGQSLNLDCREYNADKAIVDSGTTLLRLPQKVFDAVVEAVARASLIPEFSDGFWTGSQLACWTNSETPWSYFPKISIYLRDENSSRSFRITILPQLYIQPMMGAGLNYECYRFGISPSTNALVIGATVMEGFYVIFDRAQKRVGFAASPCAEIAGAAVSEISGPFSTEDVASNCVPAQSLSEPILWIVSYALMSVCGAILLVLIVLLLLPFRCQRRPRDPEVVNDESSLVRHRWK
Outline: (§1)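 Reactions were initiated by adding 50 nM of a peptide carrying fluorophore and quencher on opposite sides of the cleavage site and ran for one hour. Tris buffer then brought the pH to neutrality, ending the reaction, and fluorescence was measured (488 nm excitation, 590 nm emission).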

human recombinant BACE1 = human recombinant BACE1 (Homo sapiens (Human), UniProt P56817); assay: In vitro enzymatic BACE1 FRET assay; assay type: biochemical; conditions: read-out: IC50 IP (μM) BACE1 enzyme
Sequence of human recombinant BACE1 (P56817 46-501): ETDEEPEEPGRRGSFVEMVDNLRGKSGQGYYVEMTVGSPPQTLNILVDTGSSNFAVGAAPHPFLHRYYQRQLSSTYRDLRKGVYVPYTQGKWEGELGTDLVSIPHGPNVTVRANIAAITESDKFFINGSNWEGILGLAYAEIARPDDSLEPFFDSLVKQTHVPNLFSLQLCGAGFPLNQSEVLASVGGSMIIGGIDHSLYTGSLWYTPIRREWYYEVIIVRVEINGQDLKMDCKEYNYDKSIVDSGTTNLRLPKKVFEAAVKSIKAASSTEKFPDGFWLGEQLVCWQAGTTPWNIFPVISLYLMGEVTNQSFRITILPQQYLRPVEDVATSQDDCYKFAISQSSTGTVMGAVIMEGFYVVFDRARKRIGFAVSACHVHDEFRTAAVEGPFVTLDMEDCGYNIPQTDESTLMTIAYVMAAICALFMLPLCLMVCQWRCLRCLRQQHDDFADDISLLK
Outline: as §1

[1] = test system: Aβ40 in conditioned medium of cells stably expressing Amyloid Precursor Protein (APP); assay: In vitro BACE-1 cell-based assay (Aβ40 sandwich ELISA); conditions: read-out: IC50 IP (μM) BACE1 cell
Outline: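 Aβ40 in supernatants measured by time-resolved fluorescence sandwich ELISA, with pAb40 as capture and biotin-6E10 as detector antibody, each incubated at 4 °C.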

Sequence of Recombinant Cat D (P07339 65-412): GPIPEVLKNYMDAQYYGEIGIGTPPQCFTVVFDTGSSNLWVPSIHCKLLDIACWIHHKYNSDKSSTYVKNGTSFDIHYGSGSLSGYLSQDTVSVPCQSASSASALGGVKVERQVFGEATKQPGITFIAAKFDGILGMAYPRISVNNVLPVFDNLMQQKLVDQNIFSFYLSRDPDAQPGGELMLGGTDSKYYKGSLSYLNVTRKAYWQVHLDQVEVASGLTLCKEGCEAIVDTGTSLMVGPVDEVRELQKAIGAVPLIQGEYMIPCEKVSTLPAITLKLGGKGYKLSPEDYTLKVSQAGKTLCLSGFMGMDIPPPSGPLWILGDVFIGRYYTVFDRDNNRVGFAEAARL

SMILES	IC50 (Recombinant Cat D) [µM]	IC50 (human recombinant BACE2) [µM]	IC50 (human recombinant BACE1) [µM]	IC50 [1] [µM]
C[C@]1(c2cc(Nc3nccc4[nH]c(=O)cnc34)cc(F)c2F)N=C(N)S[C@@]2(C(F)F)C[C@@H]12 [Example 896, 5-((3-((1S,5S,6S)-3-amino-1-(difluoromethyl)-5-methyl-2-thia-4-azabicyclo[4.1.0]hept-3-en-5-yl)-4,5-difluorophenyl)amino)pyrido[3,4-b]pyrazin-2(1H)-one]	128	0.0223	0.018	0.135
COc1cnc2c(Nc3cc(F)c(F)c([C@@]4(C)N=C(N)S[C@H]5C[C@H]54)c3)ncnc2c1 [Example 897, N-(3-((1S,5S,6S)-3-amino-5-methyl-2-thia-4-azabicyclo[4.1.0]hept-3-en-5-yl)-4,5-difluorophenyl)-7-methoxypyrido[3,2-d]pyrimidin-4-amine]	1440	0.184	0.035	0.038
COC(=O)[C@]12C[C@H]1[C@@](C)(c1cc(NC(=O)c3ccc(Cl)cn3)cc(F)c1F)N=C(N)S2 [Example 898, (1S,5S,6S)-methyl 3-amino-5-(5-(5-chloropicolinamido)-2,3-difluorophenyl)-5-methyl-2-thia-4-azabicyclo[4.1.0]hept-3-ene-1-carboxylate]	673	0.00268	0.00454	0.111
COc1cnc2c(Nc3cc(F)c(F)c([C@@]4(C)N=C(N)S[C@H]5C[C@H]54)c3)nccc2n1 [Example 900, N-(3-((1S,5S,6S)-3-amino-5-methyl-2-thia-4-azabicyclo[4.1.0]hept-3-en-5-yl)-4,5-difluorophenyl)-2-methoxypyrido[3,4-b]pyrazin-5-amine]	559	0.0972	0.0324	0.195
CC(=O)[C@]12C[C@H]1[C@@](C)(c1cc(Nc3ncnc4cc(Cl)cnc34)cc(F)c1F)N=C(N)S2 [Example 902, 1-((1S,5S,6S)-3-amino-5-(5-((7-chloropyrido[3,2-d]pyrimidin-4-yl)amino)-2,3-difluorophenyl)-5-methyl-2-thia-4-azabicyclo[4.1.0]hept-3-en-1-yl)ethanone]	479	0.0125	0.0148	0.0796
CC(=O)[C@]12C[C@H]1[C@@](C)(c1cc(Nc3ncnc4cc(C#N)cnc34)cc(F)c1F)N=C(N)S2 [Example 904, 4-((3-((1S,5S,6S)-1-acetyl-3-amino-5-methyl-2-thia-4-azabicyclo[4.1.0]hept-3-en-5-yl)-4,5-difluorophenyl)amino)pyrido[3,2-d]pyrimidine-7-carbonitrile]	380	0.0355	0.0141	0.0132
C[C@@H](O)[C@]12C[C@H]1[C@@](C)(c1cc(Nc3ncnc4cc(C#N)cnc34)cc(F)c1F)N=C(N)S2 [Example 908]	360	0.0255	0.00801	0.00812
CC(C)(O)[C@]12C[C@H]1[C@@](C)(c1cc(Nc3ncnc4cc(C#N)cnc34)cc(F)c1F)N=C(N)S2 [Example 909, 4-((3-((1S,5S,6S)-3-amino-1-(1-hydroxy-1-methylethyl)-5-methyl-2-thia-4-azabicyclo[4.1.0]hept-3-en-5-yl)-4,5-difluorophenyl)amino)pyrido[3,2-d]pyrimidine-7-carbonitrile]	6.84	0.183	0.0257	0.0144
C#CCOc1cnc2c(Nc3cc(F)c(F)c([C@@]4(C)N=C(N)S[C@@]5(C#N)C[C@H]54)c3)nccc2n1 [Example 916, (1S,5S,6S)-3-amino-5-(2,3-difluoro-5-((2-(2-propyn-1-yloxy)pyrido[3,4-b]pyrazin-5-yl)amino)phenyl)-5-methyl-2-thia-4-azabicyclo[4.1.0]hept-3-ene-1-carbonitrile]	84.2	0.00399	0.000515	0.00974
CN(C)C(=O)[C@]12C[C@H]1[C@@](C)(c1cc(NC(=O)c3cnc(OCC(F)(F)C(F)F)cn3)cc(F)c1F)N=C(N)S2 [Example 922, (1S,5S,6S)-3-amino-5-(2,3-difluoro-5-(((5-(2,2,3,3-tetrafluoropropoxy)-2-pyrazinyl)carbonyl)amino)phenyl)-N,N,5-trimethyl-2-thia-4-azabicyclo[4.1.0]hept-3-ene-1-carboxamide]	1090	0.00839	0.00155	0.00155

Next, values leading:

IC50 (Recombinant Cat D) [µM]	IC50 (human recombinant BACE2) [µM]	IC50 (human recombinant BACE1) [µM]	IC50 [1] [µM]	SMILES
603	0.00203	0.00192	0.0167	CON(C)C(=O)[C@]12C[C@H]1[C@@](C)(c1cc(Nc3ncnc4cc(Cl)cnc34)cc(F)c1F)N=C(N)S2 [Example 901, (1S,5S,6S)-3-amino-5-(5-((7-chloropyrido[3,2-d]pyrimidin-4-yl)amino)-2,3-difluorophenyl)-N-methoxy-N,5-dimethyl-2-thia-4-azabicyclo[4.1.0]hept-3-ene-1-carboxamide]
1220	0.109	0.00195	0.00785	CC#CCOc1cnc2c(Nc3cc(F)c(F)c([C@@]4(C)N=C(N)S[C@@]5(COC)C[C@H]54)c3)nccc2c1 [Example 903, N-(3-((1S,5S,6S)-3-amino-1-(methoxymethyl)-5-methyl-2-thia-4-azabicyclo[4.1.0]hept-3-en-5-yl)-4,5-difluorophenyl)-3-(2-butyn-1-yloxy)-1,7-naphthyridin-8-amine]
693	0.00174	0.00404	0.014	CC(=O)[C@]12C[C@H]1[C@@](C)(c1cc(NC(=O)c3ccc(Cl)cn3)cc(F)c1F)N=C(N)S2 [Example 906, N-(3-((1S,5S,6S)-1-acetyl-3-amino-5-methyl-2-thia-4-azabicyclo[4.1.0]hept-3-en-5-yl)-4,5-difluorophenyl)-5-chloro-2-pyridinecarboxamide]
381	0.0102	0.00747	0.00413	C[C@H](O)[C@]12C[C@H]1[C@@](C)(c1cc(Nc3ncnc4cc(C#N)cnc34)cc(F)c1F)N=C(N)S2 [Example 907, 4-((3-((1S,5S,6S)-3-amino-1-(1-hydroxyethyl)-5-methyl-2-thia-4-azabicyclo[4.1.0]hept-3-en-5-yl)-4,5-difluorophenyl)amino)pyrido[3,2-d]pyrimidine-7-carbonitrile]
> 400	0.00101	0.000467	0.000795	C#CCOc1cnc2c(Nc3cc(F)c(F)c([C@@]4(C)N=C(N)S[C@@]5(C(=O)N(C)C)C[C@H]54)c3)nccc2n1 [Example 912, (1S,5S,6S)-3-amino-5-(2,3-difluoro-5-((2-(2-propyn-1-yloxy)pyrido[3,4-b]pyrazin-5-yl)amino)phenyl)-N,N,5-trimethyl-2-thia-4-azabicyclo[4.1.0]hept-3-ene-1-carboxamide]
79.4	0.0108	0.000464	0.000534	C#CCOc1cnc(C(=O)Nc2cc(F)c(F)c([C@@]3(C)N=C(N)S[C@@]4(C(=O)NC)C[C@H]43)c2)cn1 [Example 914, (1S,5S,6S)-3-amino-5-(2,3-difluoro-5-(((5-(2-propyn-1-yloxy)-2-pyrazinyl)carbonyl)amino)phenyl)-N,5-dimethyl-2-thia-4-azabicyclo[4.1.0]hept-3-ene-1-carboxamide]
373	0.0355	0.000633	0.000857	C#CCOc1cnc2c(Nc3cc(F)c(F)c([C@@]4(C)N=C(N)S[C@@]5(C(N)=O)C[C@H]54)c3)ncnc2c1 [Example 917, (1S,5S,6S)-3-amino-5-(2,3-difluoro-5-((7-(2-propyn-1-yloxy)pyrido[3,2-d]pyrimidin-4-yl)amino)phenyl)-5-methyl-2-thia-4-azabicyclo[4.1.0]hept-3-ene-1-carboxamide]
86.9	0.0389	0.000861	0.000733	C[C@]1(c2cc(Nc3ncnc4cc(OCc5ncco5)cnc34)cc(F)c2F)N=C(N)S[C@@]2(C(N)=O)C[C@H]21 [Example 918, (1S,5S,6S)-3-amino-5-(2,3-difluoro-5-((7-(1,3-oxazol-2-ylmethoxy)pyrido[3,2-d]pyrimidin-4-yl)amino)phenyl)-5-methyl-2-thia-4-azabicyclo[4.1.0]hept-3-ene-1-carboxamide]
21.2	0.00428	0.000199	0.000298	C#CCOc1cnc(C(=O)Nc2cc(F)c(F)c([C@@]3(C)N=C(N)S[C@@]4(C(N)=O)C[C@H]43)c2)cn1 [Example 919, (1S,5S,6S)-3-amino-5-(2,3-difluoro-5-(((5-(2-propyn-1-yloxy)-2-pyrazinyl)carbonyl)amino)phenyl)-5-methyl-2-thia-4-azabicyclo[4.1.0]hept-3-ene-1-carboxamide]
1080	0.00604	0.000201	0.000644	CC#CCOc1cnc2c(Nc3cc(F)c(F)c([C@@]4(C)N=C(N)S[C@@]5(C(N)=O)C[C@H]54)c3)nccc2n1 [Example 920, (1S,5S,6S)-3-amino-5-(5-((2-(2-butyn-1-yloxy)pyrido[3,4-b]pyrazin-5-yl)amino)-2,3-difluorophenyl)-5-methyl-2-thia-4-azabicyclo[4.1.0]hept-3-ene-1-carboxamide]
